The numbers were not newly measured in paper PMC2063170, “A phase I clinical and pharmacokinetic study of the new topoisomerase inhibitor GI147211 given as a 72-h continuous infusion” (British Journal of Cancer, 1998), which cites them from elsewhere.

Each structure is given as a SMILES string.

Details of the data set: method as in Burris et al. 1994. As to conditions: ref Burris et al. 1994, cited from earlier work.

Consider `CC[C@@]1(O)C(=O)OCc2c1cc1n(c2=O)Cc2cc3c(CN(C)C)c(O)ccc3nc2-1` [topotecan], for which, where the note is “continuous infusion for 3 days every 3 weeks”, the MTD is on record as 1.6 mg m-2 day-1. In addition, the “Css of lactone at MTD” value (plasma, 1.6 mg m-2 day-1 continuous infusion for 3 days every 3 weeks) is 5.5 ng/mL.
